Measured values: patent US20040048866A1 (priority 2002, published 2004)

Experiments:
[1] = target: T1, α1 and β1 subunits of guanylate cyclase (sGC), expressed in Sf9 cells (Homo sapiens, UniProt Q02108+Q02153); assay: Guanylate Cyclase Assay (formation of cyclic GMP from GTP); type: biochemical; settings: for Mean activation at 100 μM: (activity at 100 μM with 1 μM SNP − activity at 100 μM)/(activity of SNP at 1 μM − basal activity of sGC); for Mean efficacy at 100 μM with 1 μM of SNP, [% of YC-1]: compound at 100 μM with 1 μM sodium nitroprusside (SNP), normalized to 100 μM YC-1 (without SNP) as 100%; for Emax at 100 µM: compound at 100 μM without SNP, normalized to activity of 100 μM YC-1 (without SNP) as 100%, read-out: Mean basal efficacy at 100 μM, [% of YC-1]
T1 construct: made in house; host or cells: Sf9 insect cells (baculovirus co-infection); high-speed supernatant used unpurified
T1 sequence (Q02108 1-690): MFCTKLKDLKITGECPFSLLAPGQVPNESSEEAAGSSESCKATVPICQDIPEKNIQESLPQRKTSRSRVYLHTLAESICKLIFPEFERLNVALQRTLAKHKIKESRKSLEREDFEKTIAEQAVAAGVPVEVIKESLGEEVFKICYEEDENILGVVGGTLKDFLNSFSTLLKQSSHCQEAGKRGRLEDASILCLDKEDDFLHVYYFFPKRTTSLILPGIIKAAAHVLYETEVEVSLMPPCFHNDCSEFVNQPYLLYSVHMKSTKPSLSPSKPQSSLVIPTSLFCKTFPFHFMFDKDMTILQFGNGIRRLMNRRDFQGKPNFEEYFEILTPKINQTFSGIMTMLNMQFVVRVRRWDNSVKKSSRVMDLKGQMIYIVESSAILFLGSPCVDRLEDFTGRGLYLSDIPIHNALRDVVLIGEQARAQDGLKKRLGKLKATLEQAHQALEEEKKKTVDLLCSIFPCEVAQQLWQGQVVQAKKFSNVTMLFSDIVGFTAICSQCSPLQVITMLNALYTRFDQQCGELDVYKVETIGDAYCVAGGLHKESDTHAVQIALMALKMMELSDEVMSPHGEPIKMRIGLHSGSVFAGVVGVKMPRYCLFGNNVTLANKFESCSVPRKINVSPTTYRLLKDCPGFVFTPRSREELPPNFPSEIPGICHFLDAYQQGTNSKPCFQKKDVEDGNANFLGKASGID
T1 sequence (Q02153 1-619): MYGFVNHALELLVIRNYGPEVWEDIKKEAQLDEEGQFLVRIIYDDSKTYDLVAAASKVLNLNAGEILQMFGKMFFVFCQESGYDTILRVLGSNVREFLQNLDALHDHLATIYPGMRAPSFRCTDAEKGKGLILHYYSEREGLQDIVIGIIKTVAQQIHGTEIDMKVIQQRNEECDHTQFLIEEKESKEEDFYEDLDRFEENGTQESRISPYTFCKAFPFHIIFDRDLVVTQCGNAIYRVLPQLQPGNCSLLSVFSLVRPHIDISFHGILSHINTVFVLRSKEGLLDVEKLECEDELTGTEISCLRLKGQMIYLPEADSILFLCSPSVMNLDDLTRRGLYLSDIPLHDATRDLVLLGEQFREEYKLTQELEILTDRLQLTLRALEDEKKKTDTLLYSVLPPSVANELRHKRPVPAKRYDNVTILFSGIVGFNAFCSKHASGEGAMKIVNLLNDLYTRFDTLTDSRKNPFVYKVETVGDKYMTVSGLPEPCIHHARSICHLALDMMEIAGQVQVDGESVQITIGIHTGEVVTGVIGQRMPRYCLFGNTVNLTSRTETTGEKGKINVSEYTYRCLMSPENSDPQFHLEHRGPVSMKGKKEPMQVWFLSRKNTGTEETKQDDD
Procedure: Sf9 cells were cultured in Sf-90011 medium supplemented with 10% (v/v) fetal calf serum at 28° C. to give a count of 6×10^5 cells/ml. The cells were then infected with a mixture of the virus stocks for the α1 and β1 subunits of guanylate cyclase at a multiplicity of infection of 0.1 pfu/cell. The cells were harvested 72 hours after infection and were pelleted by centrifugation. The resulting cell pellets were homogenized with Polytron homogenizer in 3 volumes of 20 mM Tris-HCl (pH 7.6) containing 1 mM EDTA, 5 mM dithiothreitol, 90 mM NaCl, 10% glycerol, and protease inhibitors mix (Roche Molecular Biochemicals). The homogenate was centrifuged at 50,000×g for 60 minutes and the supernatant was aliquotted and stored at −80° C.
Compounds of the present invention were dissolved in DMSO to make 100 mM and saved as stocks at −20° C. When compounds were tested, 10-fold concentrated solutions with 10% DMSO were prepared. 10 μl of 10-fold concentrated compound solutions were added to the reaction mixture total of 100 μl.
Guanylate cyclase activity was measured by the formation of cyclic GMP from GTP in a total volume of 100 μl. Guanylate cyclase-expressed Sf9 cell high-speed supernatant (Sf9 high-speed sup) was used as an enzyme source for the assay. The reaction mixture containing 0.1 μl enzyme of Sf9 high-speed sup, compound solution, 50 mM Tris-HCl (pH 7.6), 4 mM MgCl2, 0.5 mM IBMX, 15 mM creatine phosphate, 20 μg creatine phosphokinase, 0.1% BSA and 1 mM GTP were incubated at 37° C. for 15 minutes. After the reaction, 0.9 ml of 50 mM sodium acetate buffer (pH 5.8) was added followed by boiling for 3 minutes to stop the reaction. The solution was centrifuged at 3000 rpm for 15 minutes at room temperature and cyclic GMP in 20 μl of the resulting supernatant was measured according to the protocol of Amersham cyclic GMP enzymeimmunoassay system (Amersham, RPN 226).
Compounds of the present invention were tested at 100 μM with and without 1 μM of sodium nitroprusside (SNP). YC-1 was included as a standard for each assay. The data was normalized with the activity of 100 μM YC-1 (without SNP) as 100%. Mean basal efficacy, in Table 1, was expressed as a percentage of 100 μM YC-1 (without SNP).
The mean activation, in Table 1, was calculated based on the formula: (activity of compound of the present invention at 100 μM with 1 μM SNP)−(activity of compound of on at 100 μM)/(activity of SNP at 1 μM)−(basal activity of sGC).

Row | SMILES | Mean activation at 100 μM [1] | Mean efficacy at 100 μM with 1 μM of SNP, [% of YC-1] [1] | Emax at 100 µM [1] [%] | melting point [°C]
1 | O=C(O)c1ccc(Oc2nn(Cc3ccccc3)c3ccccc23)o1 [Example 4, 5-[(1-benzyl-1H-indazol-3-yl)oxy]-2-furoic acid] | 1.5 | 26 % of YC-1 | 0 | 162 to 165
2 | O=[N+]([O-])c1cccnc1Oc1nn(Cc2ccccc2F)c2ncccc12 [Example 35, 1-(2-fluorobenzyl)-3-[(3-nitro-2-pyridinyl)oxy]-1H-pyrazolo[3,4-b]pyridine] | 1.9 | 28.1 % of YC-1 | 7.1 | 115 to 117
3 | Clc1ccc(NN=Cc2ccc(Oc3nn(Cc4ccccc4)c4ccccc34)o2)nn1 [Example 3, 5-[(1-benzyl-1H-indazol-3-yl)oxy]-2-furaldehyde (6-chloro-3-pyridazinyl)hydrazone] | 1.7 | 17 % of YC-1 | 0 | 200 to 202
4 | O=[N+]([O-])c1ccc(Oc2nn(Cc3ccccc3F)c3ncccc23)nc1 [Example 34, 1-(2-fluorobenzyl)-3-[(5-nitro-2-pyridinyl)oxy]-1H-pyrazolo[3,4-b]pyridine] | 1.0 | 7 % of YC-1 | 4 | 111 to 113
5 | OCc1cccc(Oc2nn(Cc3ccccc3)c3ccccc23)n1 [Example 2, {6-[(1-benzyl-1H-indazol-3-yl)oxy]-2-pyridinyl}methanol] | 1.8 | 20 % of YC-1 | 0 | 156 to 158
6 | O=C(NC1CCC(O)CC1)c1ccccc1Oc1nn(Cc2ccccc2)c2ccccc12 (centres unmarked) [Example 19, 2-[(1-benzyl-1H-indazol-3-yl)oxy]-N-(4-hydroxycyclohexyl)benzamide] | 1.9 | 12 % of YC-1 | 3 | –
7 | OCc1ccc(Cn2nc(OCc3ccccc3)c3ccccc32)o1 [Example 29, (5-{[3-(benzyloxy)-1H-indazol-1-yl]methyl}-2-furyl)methanol] | 1.4 | 11 % of YC-1 | 1 | 80 to 82
8 | O=C(N[C@H]1Cc2ccccc2[C@H]1O)c1ccccc1Oc1nn(Cc2ccccc2)c2ccccc12 [Example 20, 2-[(1-benzyl-1H-indazol-3-yl)oxy]-N-[(1R,2S)-1-hydroxy-2,3-dihydro-1H-inden-2-yl]benzamide] | 1.5 | 11 % of YC-1 | 6 | –
9 | O=C(NCCCn1ccnc1)c1ccccc1Oc1nn(Cc2ccccc2)c2ccccc12 [Example 24, 2-[(1-benzyl-1H-indazol-3-yl)oxy]-N-[3-(1H-imidazol-1-yl)propyl]benzamide] | 1.7 | 12 % of YC-1 | 5 | –
10 | OCc1ccc(Oc2nn(Cc3ccccc3)c3ccccc23)o1 [Example 1, {5-[(1-benzyl-1H-indazol-3-yl)oxy]-2-furyl}methanol] | – | 38 % of YC-1 | 9 | –
11 | CN(C)CCCN1CCN(C(=O)c2ccccc2Oc2nn(Cc3ccccc3)c3ccccc23)CC1 [Example 17, N-[3-(4-{2-[(1-benzyl-1H-indazol-3-yl)oxy]benzoyl}-1-piperazinyl)propyl]-N,N-dimethylamine] | 2.0 | 14 % of YC-1 | 4 | –
12 | O=C(NCC(O)c1ccccc1)c1ccccc1Oc1nn(Cc2ccccc2)c2ccccc12 (centres unmarked) [Example 22, 2-[(1-benzyl-1H-indazol-3-yl)oxy]-N-(2-hydroxy-2-phenylethyl)benzamide] | 2.1 | 13 % of YC-1 | 2 | –
13 | CCCC(CO)NC(=O)c1ccccc1Oc1nn(Cc2ccccc2)c2ccccc12 (centres unmarked) [Example 21, 2-[(1-benzyl-1H-indazol-3-yl)oxy]-N-[1-(hydroxymethyl)butyl]benzamide] | 1.9 | 15 % of YC-1 | 5 | –
